This passage reports melting point results from patent US7772271B2 (priority 2004, dated 2010).

Turning to `CCCS(=O)(=O)Nc1ccc(-c2c(C#N)c3ccc(Oc4ncccc4C(C)=O)cc3n2C2CCC2)cc1` [Compound 3311], the melting point (as a rule, the temperature of the solid-liquid transition) fell in the range of 191 to 194 °C. For `N#Cc1c(-c2ccc(NC(=O)OC3CCS(=O)(=O)CC3)cc2)n(C2CCC2)c2cc(Oc3ncccn3)ccc12` [Compound 3267] the value was 181 to 212 °C. For `CCOc1ccc2c(C#N)c(-c3ccc(N(CC)C(=O)NC4CCCC4)cc3)n(C3CCC3)c2c1` [compound 1425, 1-[4-(3-cyano-1-cyclobutyl-6-ethoxy-1H-indol-2-yl)-phenyl]-3-cyclopenyl-1-ethyl-urea] the value was 153 to 160 °C. The compound `CC(C)OC(=O)Nc1ccc(-c2c(C#N)c3ccc(OCCNC4CCC4)cc3n2C2CCC2)cc1` [Compound 1434] returned a melting point of 221 to 223 °C. For the compound `N#Cc1c(-c2ccc(OC(=O)N3CCCC3)cc2)n(C2CCC2)c2cc(OC3CCOCC3)ccc12` [Compound 2815], the melting point lay in the range of 179 to 181 °C. Then `CC(C)NC(=O)Nc1ccc(-c2c(C#N)c3ccc(Oc4ccc(Cl)nn4)cc3n2C2CCC2)cc1` [Compound 2762], with 264 to 269 °C; and `CC(C)c1ccc(CNc2ccc(-c3c(C#N)c4ccc(OC5CCOCC5)cc4n3C3CCC3)cc2)cc1` [Compound 3119], with 157 to 159 °C.

Take `CCn1c(-c2ccc(NC(=O)OCc3ccccc3)cc2)c(C#N)c2ccc(OCCOC)cc21` [Compound 1372]: the melting point was in the range of 107 to 109 °C. Then `CCN(C)C(=O)c1ccc2c(C#N)c(-c3ccc(NC(=O)O[C@H](C)C4CC4)cc3)n(C3CCC3)c2c1` [Compound 2275], with 114 to 117 °C; and `N#Cc1c(-c2ccc(N)cc2)n(C2CCC2)c2cc(Oc3nccc(N4CCOCC4)n3)ccc12` [Compound 3099], with 149 to 152 °C; and `Cc1csc(Nc2ccc(-c3c(C#N)c4ccc(Oc5ncccn5)cc4n3C3CC3)cc2)n1` [Compound 3268], with 223 to 225 °C.

Consider `C[C@@H](OC(=O)Nc1ccc(-c2c(C#N)c3cc(OCCCn4cncn4)ccc3n2C2CCC2)cc1)c1ccccc1` [Compound 2734], for which the melting point was 206 to 208 °C. For `CC(C)OC(=O)Nc1ccc(-c2c(C#N)c3ccc(OCCC(O)CO)cc3n2C2CCC2)cc1` (stereo not drawn) [compound 1429, {4-[3-cyano-1-cyclobutyl-6-(3,4-dihydroxy-butoxy)-1H-indol-2-yl]-phenyl}-carbamic acid isopropyl ester] the value was 132 to 134 °C; for `CC(C)NC(=O)Nc1c(F)cc(-c2c(C#N)c3ccc(Oc4ncccn4)cc3n2C2CCC2)cc1F` [Compound 3038], 236 to 243 °C; for `CC(OC(=O)Nc1ccc(-c2c(C#N)c3ccc(OCCCCn4ccnc4)cc3n2C2CCC2)cc1)c1ccc(F)cc1` (stereo not drawn) [Compound 2642], 93 to 95 °C. `COCCOc1ccc2c(C#N)c(-c3ccc(NC(=O)OC(c4ccccc4)C4CC4)cc3)n(C3CC3)c2c1` (stereo not drawn) [Compound 1437] returned a melting point of 74 to 76 °C.

With `CC(C)OC(=O)Nc1ccc(-c2c(C#N)c3cc(OCCCn4ccnc4)ccc3n2C2CCC2)cc1` [Compound 2607], the melting point lay in the range of 209 to 211 °C. Turning to `CC(C)OC(=O)Nc1ccc(-c2c(C#N)c3cc(OCCCn4cncn4)ccc3n2C2CCC2)cc1` [Compound 2605], the melting point fell in the range of 204 to 205 °C.

Regarding `Cc1nccnc1Oc1ccc2c(C#N)c(-c3ccc(NC(=O)O[C@H](C)C4CC4)cc3)n(C3CCC3)c2c1` [Compound 2909], the melting point fell in the range of 201 to 202 °C. For `CC(C)OC(=O)Nc1ccc(-c2c(C#N)c3ccc(OCC(O)Cn4cncn4)cc3n2C2CCC2)cc1` (stereo not drawn) [compound 1420, {4-[3-Cyano-1-cyclobutyl-6-(2-hydroxy-3-[1,2,4]triazol-1-yl-propoxy)-1H-indol-2-yl]-phenyl}-carbamic acid isopropyl ester] the value was 209 to 215 °C; for `CCOCCOc1ccc2c(C#N)c(-c3ccc(NC(=O)OC(C)C)cc3)n(C3CCC3)c2c1` [Compound 2611], 115 to 116 °C; for `COCCOc1ccc2c(C#N)c(-c3ccc(NC(=O)OCc4ccccc4)cc3)n(C3CCC3)c2c1` [Compound 1402], 144 to 145 °C. For `CCN(CC)C(=O)Oc1ccc(-c2c(C#N)c3ccc(OC)cc3n2CC)cc1` [Compound 1348] the value was 134.2 to 139.5 °C. For the compound `CC(OC(=O)Nc1ccc(-c2c(C#N)c3ccc(OC4CCOCC4)cc3n2C2CC2)cc1)C1CC1` (stereo not drawn) [Compound 2647], the melting point lay within 130 to 133 °C.

As for `CC(OC(=O)Nc1ccc(-c2c(C#N)c3ccc(OC4CCOC4)cc3n2C2CCC2)cc1)c1ccccc1` (stereo not drawn) [Compound 1456], the melting point lay within 183 to 184 °C. For `CCOc1ccc2c(c1)c(C#N)c(-c1ccc(N(S(=O)(=O)CC)S(=O)(=O)CC)cc1)n2CC1CC1` [Compound 3078] the value was 180 to 182 °C; for `CCn1c(-c2ccc(NC(=O)OCCCl)cc2)c(C#N)c2ccc(OCCOC)cc21` [Compound 1373], 148 to 151 °C; for `N#Cc1c(-c2ccc(NS(=O)(=O)NCC3CC3)cc2)n(C2CCC2)c2cc(Oc3nccnc3Cl)ccc12` [Compound 2948], 206 to 208 °C. `CCOc1ccc2c(C#N)c(-c3ccc(S(=O)(=O)N4CCC[C@H]4CO)cc3)n(C3CCC3)c2c1` [Compound 2689] yielded a melting point of 180 to 183 °C.

`Cc1cccn(-c2ccc3c(C#N)c(-c4ccc(NS(=O)(=O)CC(C)C)cc4)n(C4CCC4)c3c2)c1=O` [Compound 3340]: the melting point was 290 to 291 °C. Then `N#Cc1c(-c2cnc(NC3CCCC3)nc2)n(C2CCC2)c2cc(Oc3ncccn3)ccc12` [Compound 3330], with 230 to 231 °C. Then `CC(C)NC(=O)Oc1ccc(-c2c(C#N)c3ccc(OC4CCOCC4)cc3n2C2CCC2)cc1` [Compound 2809], with 185 to 186 °C; and `COCCOc1ccc2c(C#N)c(-c3ccc(NC(=O)Oc4ccc(Cl)cc4)cc3)n(C3CCC3)c2c1` [Compound 1401], with 182 to 183 °C; and `CC(C)OC(=O)Nc1ccc(-c2c(C#N)c3ccc(OC4CCS(=O)(=O)CC4)cc3n2C2CC2)cc1` [Compound 3232], with 278 to 282 °C.

In turn, `CSc1nccc(Oc2ccc3c(C#N)c(-c4ccc(NC(=O)NC(C)C)cc4)n(C4CCC4)c3c2)n1` [Compound 3092] returned a melting point of 238 to 243 °C. For `CC(C)CS(=O)(=O)Nc1ccc(-c2c(C#N)c3ccc(OCS(C)(=O)=O)cc3n2C2CCC2)cc1` [Compound 2991] the value was 221 to 225 °C; for `COc1ccc2c(F)c(-c3ccc(NC(=O)NC(C)C)cc3)n(CC3CC3)c2c1` [Compound 2277], 217 to 221 °C.

In turn, `CC(C)NC(=O)Nc1ccc(-c2c(C#N)c3ccc(Oc4ncccn4)cc3n2C2CCC2)cc1C#N` [Compound 3325] gave a melting point of 173 to 181 °C. Then `C[C@@H](OC(=O)Nc1ccc(-c2c(C#N)c3ccc(C(=O)O)cc3n2C2CCC2)cc1)C1CC1` [Compound 2778], with 222 to 225 °C; and `CC(C)CS(=O)(=O)Nc1ccc(-c2c(C#N)c3ccc(-n4ccccc4=O)cc3n2C2CCC2)cc1` [Compound 3015], with 270 °C (dec.). `CNS(=O)(=O)Nc1ccc(-c2c(C#N)c3ccc(OC4CCOCC4)cc3n2C2CCC2)cc1` [Compound 2833] registered a melting point of 218 to 220 °C. Compound `CCn1c(-c2ccc(NC(=O)OC3CCCC3)cc2)c(C#N)c2ccc(OCCOC)cc21` [Compound 1407] came in with a melting point of 137 to 140 °C. With `N#Cc1c(-c2ccc(NS(=O)(=O)C3CC3)cc2)n(C2CCC2)c2ccc(OC3COCOC3)cc12` [Compound 2775], the melting point lay within 199 to 203 °C. For `CCCS(=O)(=O)Nc1ccc(-c2c(C#N)c3ccc(Oc4ncccc4C(F)(F)F)cc3n2C2CCC2)cc1` [Compound 3201] the value was 181 to 184 °C.

For the compound `CC(OC(=O)Nc1ccc(-c2c(C#N)c3ccc(OCCCCn4cncn4)cc3n2C2CCC2)cc1)C(F)(F)F` (stereo not drawn) [Compound 2643], the melting point lay in the range of 168 to 169 °C. In the case of `COCCOc1ccc2c(C#N)c(-c3ccc(NC(C4CC4)C4CC4)cc3)n(C(C)C)c2c1` [Compound 2671], the melting point was in the range of 148 to 150 °C. In turn, `COc1ccc2c(Cl)c(-c3ccc(NC(=O)OC(C)C)cc3)n(CC3CC3)c2c1` [compound 2804, [4-(3-chloro-1-cyclopropylmethyl-6-methoxy-1H-indol-2-yl)-phenyl]-carbamic acid isopropyl ester] registered a melting point of 171 to 177 °C. Then `N#Cc1c(-c2ccc(Nc3nc(C(F)(F)F)cs3)cc2)n(C2CCC2)c2cc(OC3CCOCC3)ccc12` [Compound 3177], with 250 to 252 °C; and `C[C@@H](OC(=O)Nc1ccc(-c2c(C#N)c3ccc(-c4ccc(Cl)cn4)cc3n2C2CCC2)cc1)C1CC1` [Compound 3001], with 111 to 122 °C; and `CCOc1ccc2c(C#N)c(-c3ccc(S(=O)(=O)N4CCC(O)C4)cc3)n(C3CCC3)c2c1` (stereo not drawn) [Compound 3086], with 194 to 196 °C.

Consider `CCCS(=O)(=O)Nc1ccc(-c2c(C#N)c3cc(OC4COCOC4)ccc3n2C2CCC2)cc1` [Compound 2776], for which the melting point was 183 to 184 °C. For `COCCOc1ccc2c(C#N)c(-c3ccc(C(=O)N4CCC4)cc3)n(C3CCC3)c2c1` [Compound 2755] the value was 166 to 168 °C. For `CCOP(=O)(Nc1ccc(-c2c(C#N)c3ccc(OC4CCOCC4)cc3n2C2CCC2)cc1)OCC` [Compound 2744] the value was 195 to 197 °C. The compound `CN(C)/C=N/c1ccc(-c2c(C#N)c3ccc(Oc4ncccn4)cc3n2C2CCC2)cc1Cl` [Compound 3300] showed a melting point of 215 to 216 °C. The compound `CCN(CC)C(=O)c1ccc2c(C#N)c(-c3ccc(NC(=O)OC(C)C)cc3)n(C3CCC3)c2c1` [Compound 2186] had a melting point of 189 to 191 °C. As to `CCCS(=O)(=O)Nc1ccc(-c2c(C#N)c3ccc(Oc4nccnc4Cl)cc3n2C2CC2)cc1` [Compound 2937], the melting point lay within 183 to 184 °C.

Turning to `N#Cc1c(-c2ccc(OC(=O)N3CCOCC3)cc2)n(CC2CC2)c2cc(OC3CCOCC3)ccc12` [Compound 2790], the melting point is 188 to 189 °C.
